This is an account of results in PMC9654784, “Targeting SARS-CoV-2 nsp13 Helicase and Assessment of Druggability Pockets: Identification of Two Potent Inhibitors by a Multi-Site In Silico Drug Repurposing Approach” (Molecules, 2022).

Test [1] addresses T1, SARS-CoV-2 nsp13 (Severe acute respiratory syndrome coronavirus 2, UniProt P0DTD1). Kind of test: SARS-CoV-2 nsp13 unwinding-associated activity. Format: biochemical. The following applies: for IC50: concentration required to inhibit nsp13-associated unwinding activity by 50%, 1 nM nsp13, 1 mM ATP, 750 nM DNA substrate; for Percentage of control, unwinding activity: measured in the presence of the highest tested compound concentration. The procedure:
(§1) The SARS-CoV-2 nsp13 his-tagged was expressed in E. coli BL21 Rosetta 2 cells from a pNIC-ZB (addgene #159614). A purification protocol was adopted from Newman et al.. Terrific Broth media was used to culture the cells at 37 °C and at 200 rpm until 1.6 OD600. Then, protein expression was induced with […] for 16 h at 18 °C, at 200 rpm, and then pelleted and resuspended in lysis buffer (50 mM HEPES pH 7.5, 500 mM NaCl, 5% Glycerol, 10 mM Imidazole, 0.5 mM TCEP, Merck Protease inhibitor cocktail III, 1:500). After sonication and clarification at 15,000× g for 30 min, the crude extract was used for a batch binding of 40 min in a three-dimensional rotating mixer with 5 mL of Ni-sepharose (cytiva) under orbital. Then, the tubes were centrifuged at 700× g at 4 °C for 5 min, and the resin was loaded onto a gravity flow column (econo column BioRad) connected to a BioLogic LP (BioRad). It was subsequently washed (1 mL/min) with a lysis buffer for 40 min and with a wash buffer (50 mM HEPES pH 7.5, 500 mM NaCl, 5% Glycerol, 45 mM Imidazole, 0.5 mM TCEP) for 25 min. A further 10 min wash with a Hi-salt buffer (50 mM HEPES pH 7.5, 1 M NaCl, 5% Glycerol, 0.5 mM TCEP) was performed, followed by another 10 min of wash buffer. Proteins were eluted with the addition of 15 mL of elution buffer (50 mM HEPES pH 7.5, 500 mM NaCl, 5% Glycerol, 300 mM Imidazole, 0.5 mM TCEP). The elution fraction was analyzed for purity by SDS page, and clean fractions were pooled and dialyzed against a desalting buffer containing 25 mM HEPES pH 7.5, 250 mM NaCl, 20% Glycerol, and 0.25 mM TCEP. Proteins were stored at −80 °C.
The SARS-CoV-2 nsp13 unwinding-associated activity was measured in black 384-well plates (PerkinElmer). The reaction mixture, as described in [34], contained 20 mM Tris–HCl pH 7.2. 50 mM NaCl, 2 mM MgCl2, 10 μg/mL of BSA, 180 μM TCEP, 2 μM Hel Capture oligo (5′- […] -3′) (Biomers) 5% DMSO or inhibitor, and 1 nM of purified nsp13. The enzyme was pre-incubated for 10 min with the inhibitor at room temperature, and then reaction was started by adding 1 mM ATP and 750 nM annealed DNA substrate (5′- […]-Cy3-3′. 5′- BHQ-2-[…]-3′) (Biomers). Reaction volume was 40 μL. Compounds SSYA10-001 and Licoflavone C were used as positive controls of inhibition; the reaction lasted for 15 min at 37 °C, and then the products were measured with Victor Nivo (Perkin) at 530/580 nm.

Test [2] has as its target T1, SARS-CoV-2 nsp13. Put plainly: SARS-CoV-2 nsp13 ATPase (NTPase)-associated activity. Format: biochemical. The following applies: for Percentage of control, NTPase activity: measured in the presence of the highest tested compound concentration. The procedure: as §1
The SARS-CoV-2 nsp13 helicase-associated activity was measured in a transparent 96-well plate (PerkinElmer), as described in [34]. Briefly, the reaction mixture contained 20 mM Tris–HCl pH 7.2, 50 mM NaCl, 2 mM MgCl2, 10 µg/mL of BSA, 180 µM TCEP, 5% DMSO or inhibitor, and 25 nM of purified nsp13. The reaction was started by adding 400 µM ATP. Total reaction volume was 25 μL. Compound Licoflavone C was used as positive control of inhibition. The reaction lasted for 30 min at 37 °C. […] The products were measured with Victor Nivo (Perkin) at 650 nm.

Where [3] appears, read: concentration required to inhibit nsp13-associated ATPase activity by 50%, 25 nM nsp13, 400 µM ATP.

For the molecule `CC(C)(Cc1cccc(CC(=O)NCc2cccc(-c3ccc(O)cc3)c2)c1)NC[C@H](O)c1ccc(O)c(NS(C)(=O)=O)c1` [PF-00610355], the values for the IC50 on SARS-CoV-2 nsp13 [1] and at SARS-CoV-2 nsp13 [2] (setting [3]) were 22.4 ± 1.7 µM and more than 30 µM, respectively. Moreover, the “IC50 NTPase” value on SARS-CoV-2 nsp13 [2] (setting [3]) is on record as “not active”. At SARS-CoV-2 nsp13 [2], the “Percentage of control, NTPase activity” value was determined as 100%.

For the molecule `CC(C)=CCc1c(O)cc(O)c2c(=O)cc(-c3ccc(O)cc3)oc12` [Licoflavone C], the figures for the half-inhibitory concentration (IC50) against SARS-CoV-2 nsp13 [1] and against SARS-CoV-2 nsp13 [2] (setting [3]) were 8.7 ± 1.3 µM and 20.9 ± 0.8 µM, respectively.

`C=CCn1c(CSc2ccccc2[N+](=O)[O-])n[nH]c1=S` [SSYA10-001] yielded an IC50 on SARS-CoV-2 nsp13 [1] of 2.3 ± 0.7 µM.

For “nicotinamide adenine dinucleotide [NADH]”, the “Percentage of control, unwinding activity” value on SARS-CoV-2 nsp13 [1] worked out at 100%. For the same molecule, the “Percentage of control, NTPase activity” value on SARS-CoV-2 nsp13 [2] came out at 100%.

On to `CC(C)(C)c1cc(NC(=O)NCc2ccccc2Sc2ccc3nnc(-c4ccccc4SCCO)n3c2)n(-c2ccc(O)c(Cl)c2)n1` [PF-03715455], for which the IC50 at SARS-CoV-2 nsp13 [1] came to 3.02 ± 0.21 µM; against SARS-CoV-2 nsp13 [2] (setting [3]), 9.26 ± 1.93 µM.

For `CCO/N=C(\C(=O)N[C@@H]1C(=O)N2C(C(=O)[O-])=C(Sc3nc(-c4cc[n+](C)cc4)cs3)CS[C@H]12)c1nsc(NP(=O)(O)O)n1` [Ceftaroline fosamil], the IC50 against SARS-CoV-2 nsp13 [1] and against SARS-CoV-2 nsp13 [2] (setting [3]) was more than 30 µM each time. In addition, the “Percentage of control, unwinding activity” value at SARS-CoV-2 nsp13 [1] was found to be 100%. Besides, the “Percentage of control, NTPase activity” value at SARS-CoV-2 nsp13 [2] was found to be 100%.

With `OC[C@H]1O[C@@H](Oc2cc(O)cc(/C=C/c3ccc(O)cc3)c2)[C@H](O)[C@@H](O)[C@@H]1O` [Polydatin], the IC50 against SARS-CoV-2 nsp13 [1] and on SARS-CoV-2 nsp13 [2] (setting [3]) was more than 30 µM each time. Further, the “Percentage of control, unwinding activity” value at SARS-CoV-2 nsp13 [1] came to 100%. For the same molecule, the “Percentage of control, NTPase activity” value on SARS-CoV-2 nsp13 [2] was 100%.

In general, IC50 refers to the concentration that inhibits the measured activity by half. The low end stands for greater potency, the high end for weaker potency.
